Data published in PubChem BioAssay AID2060499 (Molecular Pharmacology Branch, DTP, NCI, 2025).
Where “and” joins values, the source holds several entries; their conditions need not be identical. Equal values may be shown once.

System: 777334-354-R2-J4-PDC tumor spheroids with HUVEC/MSC, viability
Assay: Anticancer human tumor 777334-354-R2-J4-PDC patient-derived pancreatic adenocarcinoma cell line growth inhibition [GQUAD]
Details: for viability, T/C: stronger effect = lower value
Excerpt: DNA G-quadruplex Stabilizer Agents in Combinations in Complex Spheroids
A high-throughput screen of multi-cell type tumor spheroids was designed to identify active combinations of DNA G-quadruplex stabilizer agents and targeted small molecules. Complex spheroids include a stromal component modeled by human endothelial cells (HUVEC) and fibroblasts modeled by human mesenchymal stem cells (MSCs). The concentration ranges selected for each drug and investigational agent were based upon clinically achievable concentrations if the clinical Cmax of the agent was known.
Compounds. The drugs and investigational agents: pidnarulex (CX-5461; NSC782164), APTO-253 (NSC789042), BRACO-19 (NSC847499), peposertib (NSC802822), ceralasertib (NSC780249), elimusertib (NSC800525), camonsertib (NSC841442), AZD-1390 (NSC803789), olaparib (NSC753686), talazoparib (NSC767125), ART-558 (NSC835418), sotorasib (NSC818433), MRTX-1133 (NSC836407), SN-38 (NSC673596), topotecan (NSC609699), etoposide (NSC141540), doxorubicin (NSC123127), gemcitabine (NSC613327), 5-fluorouracil (NSC19893), paclitaxel (NSC125973), vemurafenib (NSC761431), panobinostat (NSC761190), R-306465 (JNJ-16241199; NSC773264), adavosertib (NSC754352), TP-3654 (NSC805149), carboplatin (NSC241240), KSQ-4279 (NSC840948), and staurosporine (NSC755774) were obtained from the National Cancer Institute (NCI) Developmental Therapeutics Program Chemical Repository (34). The FDA-approved anticancer drug set is available from the NCI Developmental Therapeutics Program. […] The stock solutions were prepared in dimethyl sulfoxide (DMSO, Sigma-Aldrich, St. Louis, MO, cat. D2650) at 800-fold the tested concentration and stored at -70 degrees C prior to their use. All drugs and investigational agents were tested over a range starting from a high concentration at or near the clinical Cmax and decreasing in half-log increments. If the clinical Cmax for an agent had not been determined, the highest concentration tested was 10 microM.
2.3 Cell Culture. All cells were maintained in an incubator at 37 degrees C and 5% CO2 with 95% humidity. The PDC lines were cultured according to standard operating procedures established by the NCI PDMR. All PDCs were thawed and cultured in Matrigel-coated flasks prepared with a working solution of 1X Ham's F-12 nutrient mix, without supplementation (Invitrogen, cat. 11765054), 100 U/mL penicillin-streptomycin (Invitrogen, cat. 15140122), and 2.5% Matrigel (Corning Inc., cat. 354248) for the first three passages. The 857933-349-R-J2-PDC line was cultured in 6C/Colon 1B media, which includes advanced DMEM/F-12 (Thermo Fisher Scientific, cat. 12634028), 10 mM HEPES (Thermo Fisher Scientific, cat. 15630080), 1X GlutaMAX supplement (Thermo Fisher Scientific, cat. 35050061), 0.1 mg/mL primocin (InvivoGen, cat. ant-pm-2), 10% defined fetal bovine serum, heat inactivated (HyClone Laboratories Inc., cat. SH30070.03HI), 50% L-WRN conditioned media (ATCC, cat. CRL-3276), 1.25 mM N-Acetyl-L-cysteine (Sigma-Aldrich, cat. A9165), 10 mM nicotinamide (Sigma-Aldrich, cat. N0636), 1X B-27 supplement (Thermo Fisher Scientific, cat. 17504044), 1X N-2 supplement (Thermo Fisher Scientific, cat. 17502048), 10 microM Y-27632 dihydrochloride (Tocris Bioscience, cat. 1254), and 50 ng/mL human EGF recombinant protein (Thermo Fisher Scientific, cat. PHG0311). The 485176-168-R4-J1-PDC line was cultured in Panc media, which includes all 6C/Colon 1B media components plus 100 ng/mL human FGF-10 (Thermo Fisher Scientific, cat. 100-26), 500 nM SB-431542 (Selleckchem, cat. S1067), and gastrin (Tocris, cat. 3006).
[…]
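Note: spheroids exposed to compounds for 7 days before readout.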

`COc1cc(C2c3cc4c(cc3C(OC3OC5COC(C)OC5C(O)C3O)C3COC(=O)C23)OCO4)cc(OC)c1O` (stereo not given) + CN(C)c1ccc(Nc2c3ccc(NC(=O)CCN4CCCC4)cc3nc3cc(NC(=O)CCN4CCCC4)ccc23)cc1 was tested, and the IC50 (curve of first compound, second compound 0.0316 µM) was 4.94 µM, the IC50 (curve of first compound, second compound 0.1 µM) was 4.35 µM and the IC50 (curve of first compound, second compound 0.316 µM) was 4.03 µM. The IC50 (curve of first compound, second compound 1 µM) was 2.93 µM, the IC50 (curve of first compound, second compound 3.16 µM) was 4.71 µM and the IC50 (curve of first compound, second compound 10 µM) was 3.61 µM. For the same compound, the viability, T/C (second compound 0.0316 µM, first compound 0.0316 µM) was 98.6%, the viability, T/C (second compound 0.0316 µM, first compound 0.1 µM) was 87.8% and the viability, T/C (second compound 0.0316 µM, first compound 0.316 µM) was 88.9%. The viability, T/C (second compound 0.0316 µM, first compound 1 µM) was 70.4%, the viability, T/C (second compound 0.0316 µM, first compound 3.16 µM) was 57.8% and the viability, T/C (second compound 0.0316 µM, first compound 10 µM) was 38.5%. The viability, T/C (second compound 0.1 µM, first compound 0.0316 µM) was 99.6%, the viability, T/C (second compound 0.1 µM, first compound 0.1 µM) was 95.2% and the viability, T/C (second compound 0.1 µM, first compound 0.316 µM) was 87.5%. For the same compound, the viability, T/C (second compound 0.1 µM, first compound 1 µM) was 79%, the viability, T/C (second compound 0.1 µM, first compound 3.16 µM) was 54% and the viability, T/C (second compound 0.1 µM, first compound 10 µM) was 36%. The viability, T/C (second compound 0.316 µM, first compound 0.0316 µM) was 93.5%, the viability, T/C (second compound 0.316 µM, first compound 0.1 µM) was 78.9% and the viability, T/C (second compound 0.316 µM, first compound 0.316 µM) was 85.5%. It also gave a viability, T/C (second compound 0.316 µM, first compound 1 µM) of 70.3%, a viability, T/C (second compound 0.316 µM, first compound 3.16 µM) of 53.6% and a viability, T/C (second compound 0.316 µM, first compound 10 µM) of 34.1%. For the same compound, the viability, T/C (second compound 1 µM, first compound 0.0316 µM) was 90.5%, the viability, T/C (second compound 1 µM, first compound 0.1 µM) was 82% and the viability, T/C (second compound 1 µM, first compound 0.316 µM) was 87.4%. For the same compound, the viability, T/C (second compound 1 µM, first compound 1 µM) was 74.3%, the viability, T/C (second compound 1 µM, first compound 3.16 µM) was 48.5% and the viability, T/C (second compound 1 µM, first compound 10 µM) was 37.4%. It also gave a viability, T/C (second compound 3.16 µM, first compound 0.0316 µM) of 88%, a viability, T/C (second compound 3.16 µM, first compound 0.1 µM) of 78.5% and a viability, T/C (second compound 3.16 µM, first compound 0.316 µM) of 77.8%. The viability, T/C (second compound 3.16 µM, first compound 1 µM) was 66.3%, the viability, T/C (second compound 3.16 µM, first compound 3.16 µM) was 60.4% and the viability, T/C (second compound 3.16 µM, first compound 10 µM) was 36.6%. For the same compound, the viability, T/C (second compound 10 µM, first compound 0.0316 µM) was 79%, the viability, T/C (second compound 10 µM, first compound 0.1 µM) was 84.8% and the viability, T/C (second compound 10 µM, first compound 0.316 µM) was 75.1%. The viability, T/C (second compound 10 µM, first compound 1 µM) was 61%, the viability, T/C (second compound 10 µM, first compound 3.16 µM) was 55% and the viability, T/C (second compound 10 µM, first compound 10 µM) was 33.6%.
`COc1ccc([C@@H](O)c2cc(-c3ncnc4cc(N5CCOCC5)ccc34)c(F)cc2Cl)nn1` was tested, and the viability, T/C (compound 0.0316 µM) was 88.9% and 85.9% and 100%, the viability, T/C (compound 0.1 µM) was 90.6% and 89.8% and 104% and the viability, T/C (compound 0.316 µM) was 94.2% and 88.9% and 91.9%. For the same compound, the viability, T/C (compound 1 µM) was 76.1% and 72.6% and 86.3%, the viability, T/C (compound 3.16 µM) was 55.1% and 55.7% and 51.5% and the viability, T/C (compound 10 µM) was 30.2% and 26.8% and 30.7%. For the same compound, the IC50 (curve of compound) was 3.86 µM and 3.82 µM and 3.59 µM.
For `Nc1ccn(C2OC(CO)C(O)C2(F)F)c(=O)n1` (stereo not given), the viability, T/C (compound 0.0316 µM) was 91.5% and 76.4% and 76.8%, the viability, T/C (compound 0.1 µM) was 73% and 69.4% and 80% and the viability, T/C (compound 0.316 µM) was 64.9% and 57.5% and 76.6%. The viability, T/C (compound 1 µM) was 51.7% and 46.7% and 49.9%, the viability, T/C (compound 3.16 µM) was 41.5% and 36.5% and 39.1% and the viability, T/C (compound 10 µM) was 32.9% and 28.9% and 31.4%. For the same compound, the IC50 (curve of compound) was 1.21 µM and 0.707 µM and 1.05 µM.
In the case of `Cn1ncnc1[C@H]1c2n[nH]c(=O)c3cc(F)cc(c23)N[C@@H]1c1ccc(F)cc1`, the viability, T/C (compound 0.000999 µM) is reported as 95.4% and 87.7% and 92.6%, the viability, T/C (compound 0.00316 µM) is reported as 103% and 99.5% and 94.9% and the viability, T/C (compound 0.00999 µM) is reported as 99% and 100% and 110%. For the same compound, the viability, T/C (compound 0.0316 µM) was 87.2% and 95.5% and 87.8%, the viability, T/C (compound 0.0999 µM) was 87.4% and 104% and 112% and the viability, T/C (compound 0.316 µM) was 97.3% and 83.1% and 102%. It also gave an IC50 (curve of compound) of over 0.316 µM.
`Cc1cnc(CNC(=O)c2c(=O)c3ccc(N4CCCN(C)CC4)nc3n3c2sc2ccccc23)cn1` was tested, and the viability, T/C (compound 0.0316 µM) was 95.7% [middle of 12 runs], the viability, T/C (compound 0.1 µM) was 88.5% [middle of 12 runs] and the viability, T/C (compound 0.316 µM) was 85.2% [middle of 12 runs]. The viability, T/C (compound 1 µM) was 76% [middle of 12 runs], the viability, T/C (compound 3.16 µM) was 68.6% [middle of 12 runs] and the viability, T/C (compound 10 µM) was 54.9% [middle of 12 runs]. The IC50 (compound alone, run of 03/18/2024) was > 10 µM and 7.43 µM.
